Among the test systems are SF-268; RPMI-8226; UACC-62; SW-620; SK-MEL-2; Hs-578T; SNB-75; ACHN; SK-OV-3; CAKI-1; NCI-H460; SK-MEL-5; OVCAR-3; K562; U-251; IGROV-1; OVCAR-5; HT-29; MCF7; MOLT-4.
Assay in all cases: NCI-60 cell line screen, 48 h

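Following 48 hours of exposure in 96-well plates, responses at five concentrations were used to interpolate endpoints linearly. Abbreviation: GI50, concentration required for 50% inhibition of growth.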 Calls of active or inactive are those of the source. Cut-off read from the data, not from the text of the source: active = GI50 up to about 1.1 µM and inactive = higher. Some results are limits rather than exact numbers.

Take `CC1=NN(c2cccc(S(=O)(=O)O)c2)C2(C1)C(Cl)C(=O)N2c1nc2ccccc2s1` (stereo not given): the GI50 is 7.87 µM (inactive) in the assay on SF-268; 1.83 µM (inactive) with RPMI-8226; 6.81 µM (inactive) with UACC-62; 4.54 µM (inactive) with SW-620; 4 µM (inactive) in the assay on SK-MEL-2; 11.7 µM (inactive) in the assay with Hs-578T. The GI50 is 4.05 µM (inactive) in the assay with SNB-75; 6.81 µM (inactive) with ACHN; 11.2 µM (inactive) in the assay with SK-OV-3; 2.9 µM (inactive) in the assay with CAKI-1; 9.62 µM (inactive) in the assay with NCI-H460; 6.17 µM (inactive) with SK-MEL-5. In addition, the GI50 is 2.94 µM (inactive) in the assay on OVCAR-3; 3.86 µM (inactive) in the assay with K562; 5.85 µM (inactive) in the assay with U-251; 1.66 µM (inactive) in the assay on IGROV-1; 13.4 µM (inactive) with OVCAR-5; 7.98 µM (inactive) with HT-29. Besides, the GI50 in the assay with MCF7 is 8.89 µM (inactive); in the assay on MOLT-4, 2.88 µM (inactive).

Take `c1ccc(CCN(Cc2nc3ccccc3[nH]2)Cc2nc3ccccc3[nH]2)cc1`: the GI50 was 13.6 µM (inactive) with SF-268; 3.05 µM (inactive) in the assay with RPMI-8226; 13.4 µM (inactive) with UACC-62; 10.3 µM (inactive) in the assay on SW-620; 18 µM (inactive) in the assay with SK-MEL-2; 20.2 µM (inactive) with Hs-578T. The GI50 with SNB-75 was 16.4 µM (inactive); in the assay on ACHN it was 4.79 µM (inactive); with SK-OV-3 it was 24.4 µM (inactive); in the assay with CAKI-1 it was 3.85 µM (inactive); with NCI-H460 it was 10 µM (inactive); in the assay with SK-MEL-5, 3.86 µM (inactive). The GI50 in the assay with OVCAR-3 is 20.2 µM (inactive); in the assay on K562, 2.86 µM (inactive); with U-251, 6.59 µM (inactive); in the assay with IGROV-1, 8.15 µM (inactive); with OVCAR-5 it was 23.8 µM (inactive); in the assay with HT-29 it was 17.3 µM (inactive). The GI50 was 11.7 µM (inactive) in the assay on MCF7 and 6.59 µM (inactive) with MOLT-4.

In the case of `CCOC(=O)/C=C(/C(=O)OCC)n1ccc(=O)[nH]c1=O`, the GI50 in the assay on SF-268 is 15.6 µM (inactive); with RPMI-8226, 2.67 µM (inactive); in the assay with UACC-62, 11.8 µM (inactive); in the assay with SW-620 it was 1.86 µM (inactive); in the assay with SK-MEL-2, 15.8 µM (inactive); with Hs-578T, 17.9 µM (inactive). Further, the GI50 in the assay with SNB-75 is 14 µM (inactive); with ACHN it was 3.99 µM (inactive); in the assay on SK-OV-3 it was 18.7 µM (inactive); in the assay with CAKI-1 it was 0.938 µM (active); in the assay on NCI-H460, 14.6 µM (inactive); in the assay on SK-MEL-5 it was 15.3 µM (inactive). Also, the GI50 is 3.59 µM (inactive) in the assay on OVCAR-3; 2.23 µM (inactive) in the assay with K562; 13.5 µM (inactive) with U-251; 15.2 µM (inactive) with IGROV-1; 5.93 µM (inactive) in the assay with OVCAR-5; 10.9 µM (inactive) in the assay on HT-29. The GI50 in the assay with MCF7 is 4.19 µM (inactive); in the assay on MOLT-4 it was 2.25 µM (inactive).

As to `O=C1C=C(Cl)C(=O)C(c2ccc(Cl)cc2)=C1`, the GI50 in the assay on SF-268 was 19.7 µM (inactive); in the assay on RPMI-8226 it was 12.1 µM (inactive); in the assay on UACC-62, 17.4 µM (inactive); in the assay on SW-620 it was 25.5 µM (inactive); with SK-MEL-2 it was 18.6 µM (inactive); in the assay with Hs-578T, 26.5 µM (inactive). The GI50 in the assay with SNB-75 is 22.5 µM (inactive); in the assay on ACHN it was 16.7 µM (inactive); with SK-OV-3, 47.3 µM (inactive); with CAKI-1, 17.6 µM (inactive); in the assay on NCI-H460 it was 79.6 µM (inactive); in the assay with SK-MEL-5, 16.5 µM (inactive). The GI50 with OVCAR-3 is 16.6 µM (inactive); in the assay with K562, 4.19 µM (inactive); in the assay on U-251, 15.2 µM (inactive); in the assay on IGROV-1 it was 15 µM (inactive); in the assay with OVCAR-5, 17 µM (inactive); in the assay with HT-29 it was 23.7 µM (inactive). In addition, the GI50 is 16.3 µM (inactive) in the assay on MCF7 and 4.03 µM (inactive) in the assay with MOLT-4.

Regarding `CCOC(=O)/C1=C(\C)N(c2ccc(C)cc2)C(=O)c2ccccc2C(=O)c2c(OC(C)=O)ccc(OC(C)=O)c21`, the GI50 with SF-268 is 37.5 µM (inactive); with RPMI-8226 it was 13.8 µM (inactive); in the assay on UACC-62, 15 µM (inactive); with SW-620, 34.7 µM (inactive); in the assay on SK-MEL-2, 24 µM (inactive); in the assay on Hs-578T, 16.6 µM (inactive). Besides, the GI50 in the assay on SNB-75 was 25.8 µM (inactive); in the assay on ACHN, 16.8 µM (inactive); with SK-OV-3 it was 17.2 µM (inactive); with CAKI-1 it was 13.3 µM (inactive); in the assay with NCI-H460 it was 18.3 µM (inactive); in the assay with SK-MEL-5, 30 µM (inactive). Further, the GI50 was 16.5 µM (inactive) with OVCAR-3; 16.1 µM (inactive) with K562; 24.9 µM (inactive) in the assay on U-251; 4.01 µM (inactive) with IGROV-1; 21.9 µM (inactive) with OVCAR-5; 14.6 µM (inactive) with HT-29. Also, the GI50 in the assay on MCF7 was 26.1 µM (inactive); in the assay on MOLT-4, 6.27 µM (inactive).

`NC(=S)N/N=C/c1c[nH]c2ccccc12`: the GI50 was > 100 µM (inactive) with SF-268; 79.6 µM (inactive) with RPMI-8226; > 100 µM (inactive) in the assay on UACC-62; > 100 µM (inactive) in the assay on SW-620; > 100 µM (inactive) in the assay with SK-MEL-2; > 100 µM (inactive) with Hs-578T. The GI50 is 41.9 µM (inactive) in the assay with SNB-75; > 100 µM (inactive) in the assay with ACHN; > 100 µM (inactive) in the assay with SK-OV-3; > 100 µM (inactive) with CAKI-1; > 100 µM (inactive) with NCI-H460; > 100 µM (inactive) in the assay with SK-MEL-5. For the same compound, the GI50 with OVCAR-3, in the assay with K562, with U-251, in the assay with IGROV-1, in the assay on OVCAR-5 and with HT-29 was > 100 µM (inactive) in each case. Further, the GI50 in the assay with MCF7 was > 100 µM (inactive); in the assay with MOLT-4, 12.3 µM (inactive).

For `COc1cc2nc(-c3c(F)cccc3F)n(Cc3c(F)cccc3F)c2cc1Cc1c(F)cccc1F`, the GI50 in the assay on SF-268 was > 72.1 µM (inactive); in the assay with RPMI-8226, 7.71 µM (inactive); in the assay with UACC-62 it was 2.64 µM (inactive); in the assay on SW-620 it was > 100 µM (inactive); with SK-MEL-2, > 49.8 µM (inactive); in the assay with Hs-578T, > 20.5 µM (inactive). The GI50 is 2.74 µM (inactive) in the assay with SNB-75; > 42.6 µM (inactive) with ACHN; > 100 µM (inactive) in the assay on SK-OV-3; 8.77 µM (inactive) in the assay with CAKI-1; 15.3 µM (inactive) in the assay with NCI-H460; 6.28 µM (inactive) with SK-MEL-5. Also, the GI50 was 4.73 µM (inactive) in the assay on OVCAR-3; > 28.6 µM (inactive) with K562; > 100 µM (inactive) with U-251; 0.292 µM (active) in the assay on IGROV-1; > 100 µM (inactive) in the assay on OVCAR-5; 3.53 µM (inactive) with HT-29. For the same compound, the GI50 in the assay with MCF7 was 3.47 µM (inactive); in the assay with MOLT-4 it was 6.84 µM (inactive).

Take `O=C1C(=CNc2ccc([N+](=O)[O-])cc2)C(=O)N(c2ccccc2)C(=O)N1c1ccccc1`: the GI50 with SF-268 is > 100 µM (inactive); in the assay on RPMI-8226, 71.6 µM (inactive); in the assay on UACC-62 it was 41.3 µM (inactive); in the assay on SW-620 it was > 100 µM (inactive); in the assay on SK-MEL-2 it was 85.7 µM (inactive); with Hs-578T, > 100 µM (inactive). In addition, the GI50 in the assay on SNB-75 is 71.6 µM (inactive); in the assay on ACHN it was 64.7 µM (inactive); in the assay with SK-OV-3 it was > 100 µM (inactive); in the assay with CAKI-1, > 100 µM (inactive); in the assay on NCI-H460, > 100 µM (inactive); with SK-MEL-5, > 100 µM (inactive). Besides, the GI50 was 56.6 µM (inactive) in the assay on OVCAR-3; > 100 µM (inactive) with K562; > 100 µM (inactive) in the assay on U-251; > 100 µM (inactive) with IGROV-1; > 100 µM (inactive) in the assay with OVCAR-5; > 100 µM (inactive) with HT-29. Besides, the GI50 in the assay on MCF7 and with MOLT-4 was > 100 µM (inactive) each time.

In the case of `C=C(CN(C)C)C1(c2ccccc2)CC2(CCCC2)C(=O)O1` (stereo not given), the GI50 was > 100 µM (inactive) in the assay with SF-268; 88.3 µM (inactive) in the assay on RPMI-8226; > 100 µM (inactive) in the assay with UACC-62; > 100 µM (inactive) in the assay on SW-620; > 100 µM (inactive) with SK-MEL-2; > 100 µM (inactive) in the assay with Hs-578T. Moreover, the GI50 is > 100 µM (inactive) in the assay with SNB-75; 92.5 µM (inactive) in the assay with ACHN; > 100 µM (inactive) in the assay with SK-OV-3; > 100 µM (inactive) in the assay with CAKI-1; > 100 µM (inactive) in the assay with NCI-H460; > 100 µM (inactive) with SK-MEL-5. The GI50 with OVCAR-3 was 38.7 µM (inactive); with K562, 30.2 µM (inactive); with U-251, > 100 µM (inactive); in the assay with IGROV-1, > 100 µM (inactive); with OVCAR-5, > 100 µM (inactive); in the assay with HT-29, 24.2 µM (inactive). Besides, the GI50 in the assay on MCF7 is 74.1 µM (inactive); in the assay on MOLT-4 it was 24.9 µM (inactive).

With `CC(NNC(=O)c1cc[n+]([BH2-]C#N)cc1)c1ccccc1` (stereo not given), the GI50 in the assay on SF-268, with RPMI-8226, in the assay on UACC-62, in the assay on SW-620, in the assay with SK-MEL-2 and in the assay on Hs-578T was > 100 µM (inactive) throughout. Besides, the GI50 with SNB-75, in the assay on ACHN, in the assay with SK-OV-3, in the assay on CAKI-1, in the assay on NCI-H460 and in the assay on SK-MEL-5 was > 100 µM (inactive) throughout. The GI50 with OVCAR-3, in the assay on K562, in the assay with U-251, in the assay on IGROV-1, in the assay with OVCAR-5 and with HT-29 was > 100 µM (inactive) throughout. The GI50 in the assay with MCF7 and with MOLT-4 was > 100 µM (inactive) in each case.

These data come from ChEMBL document CHEMBL1201862, “PubChem BioAssay data set” (2004).
